Assay results as given in PubChem BioAssay (NCI).
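GI50 is the concentration that inhibits growth by half. TGI: total growth inhibition.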

Key:
Experiment in all cases: NCI tumour cell line growth inhibition, 384-well format
[1] = tested on: CAKI-1 renal
[2] = tested on: PC-3 prostate
[3] = tested on: ACHN renal
[4] = tested on: NCI-H460 NSCLC
[5] = tested on: U251 glioblastoma
[6] = tested on: NCI-H522 lung
[7] = tested on: RXF 393 renal
[8] = tested on: A498 renal
[9] = tested on: MDA-MB-231 breast
[10] = tested on: RPMI-8226 leukemia
[11] = tested on: SNB-19 CNS
[12] = tested on: NCI-H322M lung
[13] = tested on: MDA-MB-468 breast
[14] = tested on: HOP-92 NSCLC
[15] = tested on: OVCAR-8 ovarian
[16] = tested on: IGROV1 ovarian
[17] = tested on: HS 578T breast
[18] = tested on: M14 melanoma
[19] = tested on: SR leukemia
[20] = tested on: TK-10 renal
[21] = tested on: NCI/ADR-RES ovarian
[22] = tested on: T-47D breast
[23] = tested on: SN12C renal
[24] = tested on: SF-295 CNS
[25] = tested on: SNB-75 CNS
[26] = tested on: MOLT-4 leukemia
[27] = tested on: NCI-H226 lung
[28] = tested on: OVCAR-3 ovarian
[29] = tested on: 786-0 renal
[30] = tested on: MALME-3M melanoma
[31] = tested on: OVCAR-4 ovarian
[32] = tested on: COLO 205 colon
[33] = tested on: SK-OV-3 ovarian
[34] = tested on: HL-60(TB) leukemia
[35] = tested on: HCT-15 colon
[36] = tested on: HCT-116 colon
[37] = tested on: SF-539 CNS
[38] = tested on: UACC-257 melanoma
[39] = tested on: A549 NSCLC
[40] = tested on: SK-MEL-28 melanoma
[41] = tested on: DU-145 prostate
[42] = tested on: MDA-MB-435 melanoma
[43] = tested on: SF-268 CNS
[44] = tested on: CCRF-CEM leukemia
[45] = tested on: K-562 leukemia
[46] = tested on: LOX IMVI melanoma
[47] = tested on: EKVX NSCLC
[48] = tested on: NCI-H23 lung
[49] = tested on: UACC-62 melanoma
[50] = tested on: MCF7 breast
[51] = tested on: SW-620 colon
[52] = tested on: HOP-62 NSCLC
[53] = tested on: HCC-2998 colon
[54] = tested on: SK-MEL-5 melanoma
[55] = tested on: UO-31 renal
[56] = tested on: HT29 colon
[57] = tested on: KM12 colon
[58] = tested on: BT-549 breast

Compound: Nc1nc(-n2cccn2)nc(-n2cccn2)c1Br
- GI50 [1]: > 100 µM
- TGI [1]: > 100 µM
- GI50 [2]: > 100 µM
- TGI [2]: > 100 µM
- GI50 [3]: > 100 µM
- TGI [3]: > 100 µM
- GI50 [4]: > 100 µM
- TGI [4]: > 100 µM
- GI50 [5]: > 100 µM
- TGI [5]: > 100 µM
- GI50 [6]: > 100 µM
- TGI [6]: > 100 µM
- GI50 [7]: > 100 µM
- TGI [7]: > 100 µM
- GI50 [8]: > 100 µM
- TGI [8]: > 100 µM
- GI50 [9]: > 100 µM
- TGI [9]: > 100 µM
- GI50 [10]: > 100 µM
- TGI [10]: > 100 µM
- GI50 [11]: > 100 µM
- TGI [11]: > 100 µM
- GI50 [12]: > 100 µM
- TGI [12]: > 100 µM
- GI50 [13]: > 100 µM
- TGI [13]: > 100 µM
- GI50 [14]: > 100 µM
- TGI [14]: > 100 µM
- GI50 [15]: > 100 µM
- TGI [15]: > 100 µM
- GI50 [16]: > 100 µM
- TGI [16]: > 100 µM
- GI50 [17]: > 100 µM
- TGI [17]: > 100 µM
- GI50 [18]: > 100 µM
- TGI [18]: > 100 µM
- GI50 [19]: > 100 µM
- TGI [19]: > 100 µM
- GI50 [20]: > 100 µM
- TGI [20]: > 100 µM
- GI50 [21]: > 100 µM
- TGI [21]: > 100 µM
- GI50 [22]: > 100 µM
- TGI [22]: > 100 µM
- GI50 [23]: > 100 µM
- TGI [23]: > 100 µM
- GI50 [24]: > 100 µM
- TGI [24]: > 100 µM
- GI50 [25]: > 100 µM
- TGI [25]: > 100 µM
- GI50 [26]: > 100 µM
- TGI [26]: > 100 µM
- GI50 [27]: > 100 µM
- TGI [27]: > 100 µM
- GI50 [28]: > 100 µM
- TGI [28]: > 100 µM
- GI50 [29]: > 100 µM
- TGI [29]: > 100 µM
- GI50 [30]: > 100 µM
- TGI [30]: > 100 µM
- GI50 [31]: > 100 µM
- TGI [31]: > 100 µM
- GI50 [32]: > 100 µM
- TGI [32]: > 100 µM
- GI50 [33]: > 100 µM
- TGI [33]: > 100 µM
- GI50 [34]: > 100 µM
- TGI [34]: > 100 µM
- GI50 [35]: > 100 µM
- TGI [35]: > 100 µM
- GI50 [36]: > 100 µM
- TGI [36]: > 100 µM
- GI50 [37]: > 100 µM
- TGI [37]: > 100 µM
- GI50 [38]: > 100 µM
- TGI [38]: > 100 µM
- GI50 [39]: > 100 µM
- TGI [39]: > 100 µM
- GI50 [40]: > 100 µM
- TGI [40]: > 100 µM
- GI50 [41]: > 100 µM
- TGI [41]: > 100 µM
- GI50 [42]: > 100 µM
- TGI [42]: > 100 µM
- GI50 [43]: > 100 µM
- TGI [43]: > 100 µM
- GI50 [44]: > 100 µM
- TGI [44]: > 100 µM
- GI50 [45]: > 100 µM
- TGI [45]: > 100 µM
- GI50 [46]: > 100 µM
- TGI [46]: > 100 µM
- GI50 [47]: > 100 µM
- TGI [47]: > 100 µM
- GI50 [48]: > 100 µM
- TGI [48]: > 100 µM
- GI50 [49]: > 100 µM
- TGI [49]: > 100 µM
- GI50 [50]: > 100 µM
- TGI [50]: > 100 µM
- GI50 [51]: > 100 µM
- TGI [51]: > 100 µM
- GI50 [52]: > 100 µM
- TGI [52]: > 100 µM
- GI50 [53]: > 100 µM
- TGI [53]: > 100 µM
- GI50 [54]: > 100 µM
- TGI [54]: > 100 µM
- GI50 [55]: > 100 µM
- TGI [55]: > 100 µM
- GI50 [56]: > 100 µM
- TGI [56]: > 100 µM
- GI50 [57]: > 100 µM
- TGI [57]: > 100 µM
- GI50 [58]: > 100 µM
- TGI [58]: > 100 µM
